Test results taken from patent US20100112037A1, “S1P RECEPTOR AGONISTS FOR THE TREATMENT OF CEREBRAL MALARIA” (priority 2008, published 2010).

What was measured:
P. berghei ANKA = test: Cerebral malaria model (survival of infected mice); format: in vivo, C56B1/6 mice; settings: FTY720 0.3 mg/kg/day by gavage, administered one day prior to malaria infection; vs control; two independent experiments, Log-Rank Test, p=0.0002; FIG. 1
Procedure: A well characterized and widely used animal model of CM was used to test the efficacy of compounds. See, e.g., Golenser, supra, at 585. In each experiment, two groups of C56B1/6 mice were infected with 1 million parasites (P. berghei ANKA) i.p. in 500 μl of media. The first group was the control group, and the second was treated daily by gavage with FTY720 (0.3 mg/kg/day).
After at least two doses of the drug had been administered, tail vein blood was taken from the mice, and flow cytometry analysis was used to assess the levels of B and T cells, using antibodies to CD3, CD4, CD8 and CD19. The animals were monitored daily for body weight and parasitaemia, and twice daily for survival.

[1] = Topical and transdermal administration: blood cell counts (CBC); format: in vivo, F1 hybrid mice; settings: topical (200 μL of 1 mg/mL solution) and transdermal patch; measured six hours after administration; FIG. 2
Procedure: Drug-in-adhesive transdermal patches containing FTY720 were made by dissolving FTY720 in adhesive (Duro-Tak 87-2196, National Starch & Chemical Co.) at a ratio of 1 part compound to 10 parts adhesive (weight:weight). Adhesive containing FTY720 was layered onto a release liner (Scotchpak 1022 PET Film, 3M Corporation) using a Bird applicator with a 50 to 200 micron gap. Organic solvents were removed from the film by baking at 100° C. for 15 minutes. The dried adhesive was then laminated onto a backing membrane (CoTran 9720 polyethylene film, 3M Corporation).
Topical and transdermal dosage forms of FTY720 were administered to F1 hybrid mice (n=5 mice per group). The blood of the mice was collected at various time points for CBC and PK analysis.
Topical dosing of FTY720 was achieved using 200 μL of a 1 mg/mL solution composed of 70% ethanol, 29.9% water, and 0.1% DMSO.
Transdermal dosing was achieved using patches made as described above. Patches were cut from the laminate and applied to bare skin above the front shoulder of the mice. Dosage was controlled by adjusting the thickness of the compound/adhesive applied to the release liner and number or size of patches. Fur was trimmed from the site of application and then shaved to expose bare skin. To improve adhesion, the skin was further prepped by swabbing with 70% ethanol and then allowed to air dry prior to placing the patch.

In the case of `CCCCCCCCc1ccc(CCC(N)(CO)CO)cc1` [FTY720, 2-amino-2-[2-(4-octylphenyl)ethyl]propane-1,3-diol], the survival (P. berghei ANKA) is reported as “significant survival advantage”, the lymphocyte count [1] is reported as “affected” and the neutrophil count [1] is reported as “affected”. For the same compound, the “white blood cell count” value [1] was “affected”.
